Experimental data published in ChEMBL document CHEMBL1143638, “Pyrazolopyridinones as functionally selective GABAA ligands” (Bioorg Med Chem Lett, 2005).

Key:
[1] = target: T1, GABA-A receptor; alpha-1/beta-3/gamma-2 (Homo sapiens) (UniProt P14867+P18507+P28472); experiment: Effective concentration to modulate GABA-mediated chloride ion flux through GABA-A receptor alpha-1-beta-3-gamma-2 expressed in L(tk-) cells; type: functional, cell-based
[2] = target: T2, GABA-A receptor; alpha-3/beta-3/gamma-2 (Homo sapiens, UniProt P18507+P28472+P34903); experiment: Inhibition of [3H]-Ro- 15-1788 binding to human GABA-A receptor alpha-3-beta-3-gamma-2 expressed in L(tk-) cells; type: cell-based
T2 sequence (P18507 whole entry): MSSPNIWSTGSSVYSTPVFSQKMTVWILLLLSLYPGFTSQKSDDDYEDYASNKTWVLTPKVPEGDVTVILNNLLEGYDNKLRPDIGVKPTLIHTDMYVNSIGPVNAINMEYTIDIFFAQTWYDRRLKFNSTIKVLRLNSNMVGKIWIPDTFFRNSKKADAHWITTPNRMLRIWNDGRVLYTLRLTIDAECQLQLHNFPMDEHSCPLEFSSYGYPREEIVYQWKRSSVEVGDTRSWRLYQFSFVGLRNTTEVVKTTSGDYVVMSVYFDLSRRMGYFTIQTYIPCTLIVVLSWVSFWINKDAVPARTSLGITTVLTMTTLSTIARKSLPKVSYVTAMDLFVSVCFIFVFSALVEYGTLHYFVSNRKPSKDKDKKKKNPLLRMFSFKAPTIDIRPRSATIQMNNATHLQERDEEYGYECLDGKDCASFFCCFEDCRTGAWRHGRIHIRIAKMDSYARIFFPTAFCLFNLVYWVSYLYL
T2 sequence (P28472 whole entry): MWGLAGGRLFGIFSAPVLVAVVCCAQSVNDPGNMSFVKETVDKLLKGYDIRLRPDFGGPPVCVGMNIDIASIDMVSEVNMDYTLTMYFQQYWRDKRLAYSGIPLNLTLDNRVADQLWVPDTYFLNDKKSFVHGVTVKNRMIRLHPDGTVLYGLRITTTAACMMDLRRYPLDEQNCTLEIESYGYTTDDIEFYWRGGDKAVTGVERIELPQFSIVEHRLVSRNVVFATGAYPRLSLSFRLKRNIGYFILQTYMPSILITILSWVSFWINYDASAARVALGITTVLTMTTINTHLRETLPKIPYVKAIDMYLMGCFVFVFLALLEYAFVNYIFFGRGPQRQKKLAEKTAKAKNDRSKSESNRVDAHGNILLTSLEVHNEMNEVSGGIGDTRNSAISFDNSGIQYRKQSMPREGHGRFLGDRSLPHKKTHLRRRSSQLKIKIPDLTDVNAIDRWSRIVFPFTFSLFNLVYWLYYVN
T2 sequence (P34903 whole entry): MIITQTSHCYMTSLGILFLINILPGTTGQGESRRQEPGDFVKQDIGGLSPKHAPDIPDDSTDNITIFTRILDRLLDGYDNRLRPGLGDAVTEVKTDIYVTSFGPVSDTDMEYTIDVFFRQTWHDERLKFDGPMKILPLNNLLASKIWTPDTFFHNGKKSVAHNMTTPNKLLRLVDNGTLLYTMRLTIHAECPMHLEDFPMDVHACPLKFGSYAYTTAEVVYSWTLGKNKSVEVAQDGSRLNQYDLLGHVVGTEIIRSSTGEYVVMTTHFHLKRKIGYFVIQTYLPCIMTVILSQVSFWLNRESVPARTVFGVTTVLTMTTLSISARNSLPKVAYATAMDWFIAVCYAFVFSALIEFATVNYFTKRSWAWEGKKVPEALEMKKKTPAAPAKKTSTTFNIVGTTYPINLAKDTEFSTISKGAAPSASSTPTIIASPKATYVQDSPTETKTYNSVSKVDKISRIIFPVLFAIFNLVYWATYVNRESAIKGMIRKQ

[3] = target: T3, GABA-A receptor; alpha-1/beta-3/gamma-2 (Homo sapiens, UniProt P14867+P18507+P28472); experiment: Inhibition of [3H]-Ro- 15-1788 binding to human GABA-A receptor alpha-1-beta-3-gamma-2 expressed in L(tk-) cells; type: cell-based
T3 sequence (P14867 whole entry): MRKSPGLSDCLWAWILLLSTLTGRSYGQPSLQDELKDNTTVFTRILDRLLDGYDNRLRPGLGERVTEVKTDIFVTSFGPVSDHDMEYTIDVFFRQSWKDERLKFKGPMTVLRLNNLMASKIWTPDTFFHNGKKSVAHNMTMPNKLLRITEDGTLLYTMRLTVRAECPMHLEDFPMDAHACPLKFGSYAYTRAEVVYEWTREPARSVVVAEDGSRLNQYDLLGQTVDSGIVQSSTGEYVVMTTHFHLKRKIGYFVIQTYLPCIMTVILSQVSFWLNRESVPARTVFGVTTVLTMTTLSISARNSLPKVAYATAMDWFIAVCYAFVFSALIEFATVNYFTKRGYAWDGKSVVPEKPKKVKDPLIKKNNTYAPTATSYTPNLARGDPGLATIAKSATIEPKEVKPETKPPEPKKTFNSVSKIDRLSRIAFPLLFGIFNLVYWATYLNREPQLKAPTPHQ
T3 sequence (P18507 whole entry): T2 sequence (P18507 whole entry)
T3 sequence (P28472 whole entry): T2 sequence (P28472 whole entry)

[4] = target: T4, GABA-A receptor; alpha-3/beta-3/gamma-2 (Homo sapiens) (UniProt P18507+P28472+P34903); experiment: Effective concentration to modulate GABA-mediated chloride ion flux through GABA-A receptor alpha-3-beta-3-gamma-2 expressed in L(tk-) cells; type: functional, cell-based
[5] = target: T1, GABA-A receptor; alpha-1/beta-3/gamma-2 (Homo sapiens); experiment: Effective current to modulate GABA-mediated chloride ion flux through GABA-A receptor alpha-1-beta-3-gamma-2 expressed in L(tk-) cells; type: functional, cell-based
[6] = target: T4, GABA-A receptor; alpha-3/beta-3/gamma-2 (Homo sapiens); experiment: Effective current to modulate GABA-mediated chloride ion flux through GABA-A receptor alpha-3-beta-3-gamma-2 expressed in L(tk-) cells; type: functional, cell-based

- Efficacy [1]: 0.14
- Ki [2]: 1.5 nM
- Ki [3]: 0.29 nM
- Efficacy [4]: 0.38
- Efficacy [5]: 0.21
- Efficacy [6]: 0.45
SMILES: O=c1c2c[nH]c3c(c-2nn1-c1ccc(Cl)cc1)CCCC3
